Legend:
[1] = system: IL-6; assay: IL-6 inhibition in LPS-stimulated human peripheral blood mononuclear cells (HTRF); type: cell-based; conditions: Homo sapiens, PBMC; for inhibition at 10 µM: read-out: percent value in parentheses beside EC50 >10 μM; for EC50: Table 9, huPBMCs, LPS 50 ng/mL, 22 hours, dose-response starting from 10 μM;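 for all read-outs here: IL-6 detected by HTRF with an XL665- and Cryptate-labelled anti-IL-6 antibody pair, samples run in duplicate, EC50 obtained from a four-parameter Levenberg-Marquardt curve fit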
Description: After 22 hour incubation, a mixture of anti-IL6 XL665 and anti-IL-6 Cryptate diluted in reconstitution buffer (Catalog #62IL6PEC, Cisbio Inc., Bedford, Mass.) was added to each well. […] All samples were processed in duplicate. […] EC50 was determined using software generated by Dotmatics Limited (Windhill Bishops Stortford Herts, UK) using the Levenberg-Marquardt 4 parameter fitting procedure with finite different gradients.

[2] = molecular target: recombinant GSK3β kinase (Homo sapiens (Human), UniProt P49841); assay: GSK3β kinase assay (Ser/Thr 09 peptide Z-lyte FRET); type: biochemical; conditions: 46 μM ATP, 1 h room temperature;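 note: kinase activity read as coumarin to fluorescein emission ratio, 11-point threefold dilutions from 10 µM to 0.0003 µM in duplicate, unphosphorylated and phosphorylated peptide as 0% and 100% controls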
[3] = system: α-smooth muscle actin (αSMA) positive LL29 cells; assay: Inhibition of fibrotic process: αSMA in TGF-β1 treated primary human fibroblasts from IPF patients; type: cell-based; conditions: Homo sapiens, Fibroblast; for EC50: 96 h, Table 8, LL29 fibroblasts from IPF patients, TGF-β1 20 ng/mL, 4 days, dose-response 10 μM to 0.94 nM; for inhibition at 10 µM: read-out: percent value in parentheses beside EC50 >10 μM;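 for all read-outs here: controls were TGF-β1 stimulated wells with DMSO vehicle (positive) and cells given DMSO alone (negative), cultured in F12 medium with 1% fetal bovine serum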
[4] = molecular target: recombinant DYRK1A kinase (Homo sapiens (Human), UniProt Q13627); assay: DYRK1A kinase assay (Ser/Thr 18 peptide Z-lyte FRET); type: biochemical; conditions: 30 μM ATP, 1 h room temperature;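 note: Read-out is the coumarin to fluorescein emission ratio, referenced to unphosphorylated (0%) and phosphorylated (100%) Ser/Thr 18 peptide controls, values from dose-response curves by non-linear regression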
[5] = system: Tau phosphorylation at Ser396 (pSer396); assay: Tau phosphorylation assay (pSer396 ELISA / western blot) in SH-SY5Y cells; type: cell-based, human; conditions: Homo sapiens; SH-SY5Y cells, overnight (16-18 h) exposure; read-out: pSer396 Tau EC50;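 note: EC50 for reduction of Tau pSer396 in lysed cells, measured by colorimetric ELISA or chemiluminescent western blot, both using the same pSer396 antibody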
[6] = system: Wnt pathway (Sp5-Luc reporter, TCF/LEF binding sites) in SW480 colon carcinoma cells; assay: Screening assay for Wnt activity: Sp5-Luc reporter gene assay; type: cell-based, human; conditions: Homo sapiens; for EC50: Sp5-Luc reporter, SW480 cells, 36 to 48 hours; for inhibition at 10 µM: SW480, read-out: percent inhibition at 10 μM;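 for all read-outs here: firefly luciferase luminescence read in stably transduced SW480 cells carrying the Sp5 promoter reporter with eight TCF/LEF sites, compounds given in 0.1% DMSO final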
Description: The screening assay for Wnt activity is described as follows.
Following incubation, 15 μl of BriteLite Plus luminescence reagent (Perkin Elmer) was added to each well of the 384-well assay plates. The plates were placed on an orbital shaker for 2 min and then luminescence was quantified using the Envision (Perkin Elmer) plate reader.

[7] = system: SW480 colon carcinoma cells; assay: Cell viability assay (CellTiter-Glo); type: cell-based, human; conditions: Homo sapiens; for EC50: 96 h, SW480 cells, CellTiter-Glo, four days incubation; for inhibition at 10 µM: SW480, read-out: percent inhibition at 10 μM

Chain of recombinant GSK3β kinase (P49841 whole entry): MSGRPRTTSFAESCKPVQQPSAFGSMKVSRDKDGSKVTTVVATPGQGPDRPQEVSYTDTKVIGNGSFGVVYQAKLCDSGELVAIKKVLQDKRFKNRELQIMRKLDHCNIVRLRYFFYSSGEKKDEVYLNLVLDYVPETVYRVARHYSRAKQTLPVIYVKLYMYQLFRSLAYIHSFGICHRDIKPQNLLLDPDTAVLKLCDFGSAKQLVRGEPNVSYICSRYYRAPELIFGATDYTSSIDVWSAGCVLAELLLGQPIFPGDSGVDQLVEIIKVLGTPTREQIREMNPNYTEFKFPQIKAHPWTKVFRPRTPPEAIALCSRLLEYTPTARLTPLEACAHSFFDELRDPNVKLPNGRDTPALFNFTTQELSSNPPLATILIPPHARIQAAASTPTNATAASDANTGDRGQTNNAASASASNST

| Structure (SMILES) | inhibition at 10 µM [1] [%] | EC50 [1] [nM] | EC50 [2] [nM] | EC50 [3] [nM] | EC50 [4] [nM] | EC50 [5] [nM] | EC50 [6] [nM] | EC50 [7] [nM] | inhibition at 10 µM [7] [%] | inhibition at 10 µM [3] [%] | inhibition at 10 µM [6] [%] |
| --- | --- | --- | --- | --- | --- | --- | --- | --- | --- | --- | --- |
| Cc1nnc(-c2ccc3cnc(NC(=O)CN4CCOCC4)cc3c2)s1 [Compound 952, N-(6-(5-Methyl-1,3,4-thiadiazol-2-yl)isoquinolin-3-yl)-2-morpholinoacetamide] | 10.1 | > 10000 | 8 | 741 | 7.2 | 269 | 1470 | 7090 | – | – | – |
| Cc1nnc(-c2ccc3cnc(NC(=O)CN4C[C@H]5C[C@@H]4CO5)cc3c2)s1 [Compound 960, 2-((1R,4R)-2-Oxa-5-azabicyclo[2.2.1]heptan-5-yl)-N-(6-(5-methyl-1,3,4-thiadiazol-2-yl)isoquinolin-3-yl)acetamide] | 8.2 | > 10000 | 15 | 957 | 17.1 | 233 | 1660 | 6670 | – | – | – |
| Cc1nnc(-c2cc(F)c3cnc(NC(=O)CN4CCOCC4)cc3c2)s1 [Compound 963, N-(8-Fluoro-6-(5-methyl-1,3,4-thiadiazol-2-yl)isoquinolin-3-yl)-2-morpholinoacetamide] | 8.2 | > 10000 | 6 | 1190 | 26.7 | 252 | 1200 | > 10000 | 49.2 | – | – |
| Cn1cc(-c2ccc3cnc(NC(=O)C4CCN(S(=O)(=O)c5ccccc5)CC4)cc3c2)cn1 [Compound 964, N-(6-(1-Methyl-1H-pyrazol-4-yl)isoquinolin-3-yl)-1-(phenylsulfonyl) piperidine-4-carboxamide] | 6.8 | > 10000 | 102 | > 10000 | 5.2 | 576 | 1450 | 3830 | – | 19.7 | – |
| [2H]C([2H])([2H])N1CCN(CC(=O)Nc2cc3cc(-c4cnn(C)c4)ccc3cn2)CC1 [Compound 965, N-(6-(1-Methyl-1H-pyrazol-4-yl)isoquinolin-3-yl)-2-(4-(methyl-d3)piperazin-1-yl)acetamide] | – | 3260 | 79 | 1370 | 10.6 | 1000 | 3180 | 8630 | – | – | – |
| CCN1CCC(C(=O)Nc2cc3cc(-c4cnn(C)c4)c(F)cc3cn2)CC1 [Compound 967, 1-Ethyl-N-(7-fluoro-6-(1-methyl-1H-pyrazol-4-yl)isoquinolin-3-yl) piperidine-4-carboxamide] | – | 1130 | 46 | 79 | 1.9 | 373 | 4420 | 459 | – | – | – |
| CN1CCN(CC(=O)Nc2cc3cc(-c4cnn(C)c4)cc(F)c3cn2)CC1 [Compound 968, N-(8-Fluoro-6-(1-methyl-1H-pyrazol-4-yl)isoquinolin-3-yl)-2-(4-methylpiperazin-1-yl)acetamide] | – | 9240 | 61 | > 10000 | 31.4 | 2700 | > 10000 | > 10000 | 14.5 | 24.1 | 38 |
| CN1CCC(C(=O)Nc2cc3cc(-c4cnsc4)ccc3cn2)CC1 [Compound 970, N-(6-(Isothiazol-4-yl)isoquinolin-3-yl)-1-methylpiperidine-4-carboxamide] | – | 1130 | 478 | 1240 | 2.3 | 862 | 1360 | 1260 | – | – | – |
| [2H]C([2H])([2H])n1cc(-c2ccc3cnc(NC(=O)[C@H](C)N4CCCC4)cc3c2)cn1 [Compound 971, (S)—N-(6-(1-(methyl-d3)-1H-pyrazol-4-yl)isoquinolin-3-yl)-2-(pyrrolidin-1-yl)propanamide] | – | 1220 | 34 | 866 | 34.2 | 191 | 720 | 1200 | – | – | – |
| O=C(Nc1cc2cc(-c3cnco3)ccc2cn1)C1CC1 [Compound 973, N-(6-(Oxazol-5-yl)isoquinolin-3-yl)cyclopropanecarboxamide] | – | 395 | 20 | 134 | 2.9 | 102 | 609 | 391 | – | – | – |
| O=C(Nc1cc2cc(-c3cnco3)ccc2cn1)[C@H]1CCCO1 [Compound 974, (R)—N-(6-(Oxazol-5-yl)isoquinolin-3-yl)tetrahydrofuran-2-carboxamide] | 45.9 | > 10000 | 96 | > 10000 | 13.5 | 2000 | 3740 | 3160 | – | 49.6 | – |
| O=C(Nc1cc2cc(-c3cnco3)ccc2cn1)[C@@H]1CCCNC1 [Compound 975, (R)—N-(6-(Oxazol-5-yl)isoquinolin-3-yl)piperidine-3-carboxamide] | – | 425 | 1090 | 138 | 12 | 4600 | 423 | 334 | – | – | – |
| O=C(Nc1cc2cc(-c3cnco3)ccc2cn1)C1CCN(C(=O)CN2CCCC2)CC1 [Compound 977, N-(6-(Oxazol-5-yl)isoquinolin-3-yl)-1-(2-(pyrrolidin-1-yl)acetyl)piperidine-4-carboxamide] | – | 404 | 246 | 136 | 3.2 | 426 | 875 | 615 | – | – | – |
| CN1CCC(N2CCC(C(=O)Nc3cc4cc(-c5cnco5)ccc4cn3)CC2)CC1 [Compound 978, 1′-Methyl-N-(6-(oxazol-5-yl)isoquinolin-3-yl)-[1,4′-bipiperidine]-4-carboxamide] | – | 3360 | 220 | 722 | 3.9 | 274 | 2220 | 1580 | – | – | – |
| O=C(Nc1cc2cc(-c3cnco3)ccc2cn1)[C@H]1CC[C@@H](N2CCOCC2)CC1 [Compound 979, cis-4-Morpholino-N-(6-(oxazol-5-yl)isoquinolin-3-yl)cyclohexane-1-carboxamide] | – | 4300 | 791 | 1030 | 10 | 569 | 4090 | 2220 | – | – | – |
| CN(CC(=O)Nc1cc2cc(-c3cnco3)ccc2cn1)C1CCC1 [Compound 980, 2-(Cyclobutyl(methyl)amino)-N-(6-(oxazol-5-yl)isoquinolin-3-yl)acetamide] | – | 3680 | 389 | > 10000 | 19.1 | 2100 | > 10000 | 5740 | – | 40.3 | 40.5 |
| O=C(CN1CCCC1)Nc1cc2cc(-c3cnco3)ccc2cn1 [Compound 981, N-(6-(Oxazol-5-yl)isoquinolin-3-yl)-2-(pyrrolidin-1-yl)acetamide] | – | 1100 | 141 | 605 | 13.7 | 1100 | 1080 | 546 | – | – | – |
| C[C@@H]1CCCN1CC(=O)Nc1cc2cc(-c3cnco3)ccc2cn1 [Compound 982, (R)-2-(2-Methylpyrrolidin-1-yl)-N-(6-(oxazol-5-yl)isoquinolin-3-yl) acetamide] | – | 2790 | 265 | 767 | 19.2 | 1100 | 2710 | 1210 | – | – | – |
| CN1CCN(CC(=O)Nc2cc3cc(-c4cnco4)ccc3cn2)CC1 [Compound 983, 2-(4-Methylpiperazin-1-yl)-N-(6-(oxazol-5-yl)isoquinolin-3-yl)acetamide] | 9.1 | > 10000 | 303 | 679 | 22.3 | 1500 | 5530 | 4620 | – | – | – |
| Cn1ncc(-c2ccc3cnc(NC(=O)C4CCOCC4)cc3c2)c1CO [Compound 984, N-(6-(5-(Hydroxymethyl)-1-methyl-1H-pyrazol-4-yl)isoquinolin-3-yl) tetrahydro-2H-pyran-4-carboxamide] | – | 8760 | 236 | 1240 | 5.5 | 2100 | 2990 | 3130 | – | – | – |
| CN1CCC(C(=O)Nc2cc3cc(-c4cnn(C)c4CO)ccc3cn2)CC1 [Compound 985, N-(6-(5-(Hydroxymethyl)-1-methyl-1H-pyrazol-4-yl)isoquinolin-3-yl)-1-methylpiperidine-4-carboxamide] | – | 3890 | 283 | > 10000 | 4.1 | 3200 | 1160 | 1720 | – | 38 | – |
